Test results: PubChem BioAssay (NCI)
Values joined by “and” are separate entries in the source; they are usually repeats but may differ in a detail not shown here. Equal entries are not always repeated.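 Following 48 hours of exposure in 96-well plates, responses at five concentrations were used to interpolate endpoints linearly. GI50 is the concentration that inhibits growth by half. TGI marks complete inhibition of growth.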

Legend:
Assay in all cases: NCI anticancer screen, dose series, 48 h
[1] = system: CCRF-CEM leukemia
[2] = system: HCC-2998 colon
[3] = system: HT29 colon
[4] = system: M14 melanoma
[5] = system: OVCAR-5 ovarian
[6] = system: RPMI-8226 leukemia
[7] = system: SF-539 CNS
[8] = system: SK-MEL-28 melanoma
[9] = system: UACC-62 melanoma
[10] = system: UO-31 renal

## CC1=C(/C=C/C(=O)CC(=O)/C=C/C2=C(C)CCCC2(C)C)C(C)(C)CCC1
[1]
  GI50: 5.22 µM
  TGI: 31 µM
[2]
  GI50: 35.4 µM
  TGI: > 100 µM
[3]
  GI50: 28.3 µM
  TGI: > 100 µM
[4]
  GI50: 47.7 µM
  TGI: > 100 µM
[5]
  GI50: 77 µM
  TGI: > 100 µM
[6]
  GI50: 14.9 µM
  TGI: 40.8 µM
[7]
  GI50: 26 µM
  TGI: > 100 µM
[8]
  GI50: 27 µM
  TGI: > 100 µM
[9]
  GI50: 19.1 µM
  TGI: 44.7 µM
[10]
  GI50: 26.8 µM
  TGI: > 100 µM

## O=C1CC[C@H](N2Cc3c(OCc4ccc(CN5CCOCC5)cc4)cccc3C2=O)C(=O)N1
[1]
  GI50: > 100 µM
  TGI: > 100 µM
[2]
  GI50: > 100 µM
  TGI: > 100 µM
[3]
  GI50: > 100 µM
  TGI: > 100 µM
[4]
  GI50: > 100 µM
  TGI: > 100 µM
[5]
  GI50: > 100 µM
  TGI: > 100 µM
[6]
  GI50: > 100 µM
  TGI: > 100 µM
[7]
  GI50: > 100 µM
  TGI: > 100 µM
[8]
  GI50: > 100 µM
  TGI: > 100 µM
[9]
  GI50: > 100 µM
  TGI: > 100 µM
[10]
  GI50: > 100 µM
  TGI: > 100 µM

## c1ccc(CN2CCc3[nH]c4ccccc4c3C2)cc1
[1]
  TGI: > 82.6 µM
[2]
  TGI: 30.1 µM
[3]
  TGI: 36.4 µM
[4]
  TGI: 33.1 µM
[5]
  TGI: > 96.3 µM
[6]
  TGI: 69.3 µM
[7]
  TGI: 56.2 µM
[8]
  TGI: 32.8 µM
[9]
  TGI: 66.9 µM
[10]
  TGI: 79.2 µM

## CC[C@@]1(OC(=O)C(N)CCCCN)C(=O)OCc2c1cc1n(c2=O)Cc2cc3ccccc3nc2-1 (some centres undefined)
[1]
  TGI: 0.115 µM
[2]
  TGI: 2.11 µM
[3]
  TGI: 11.4 µM
[4]
  TGI: 1.37 µM
[5]
  TGI: 3.86 µM
[6]
  TGI: 0.883 µM
[7]
  TGI: 0.149 µM
[8]
  TGI: 16.1 µM
[9]
  TGI: 0.0707 µM
[10]
  TGI: 0.148 µM

## N#Cc1ccc(/C=C(/C(=O)c2ccccc2)c2ccccc2)cc1
[1]
  TGI: > 29.1 µM
[2]
  TGI: 30.6 µM
[3]
  TGI: 22.1 µM
[4]
  TGI: 27.8 µM
[5]
  TGI: 35.4 µM
[6]
  TGI: 8.82 µM
[7]
  TGI: 42 µM
[8]
  TGI: 32.7 µM
[9]
  TGI: 31.2 µM
[10]
  TGI: 28.9 µM

## O=C1CC(c2c(-c3ccccc3)[nH]c3ccccc23)C(=O)N1c1ccccc1 (centres undefined)
[1]
  TGI: > 100 µM
[2]
  TGI: > 100 µM
[3]
  TGI: > 100 µM
[4]
  TGI: > 100 µM
[5]
  TGI: > 100 µM
[6]
  TGI: > 100 µM
[7]
  TGI: > 100 µM
[8]
  TGI: > 100 µM
[9]
  TGI: > 100 µM
[10]
  TGI: > 100 µM

## O=C1/C=C/[C@@H](O)[C@@H]2C[C@@H](O)C[C@H]2/C=C/CCC[C@H](CCc2ccc3ncccc3c2)O1
[1]
  GI50: 0.306 µM
  TGI: 8.4 µM
[2]
  GI50: 0.252 µM
  TGI: 4.99 µM
[3]
  GI50: 0.0905 µM
  TGI: 0.555 µM
[4]
  GI50: 0.327 µM
  TGI: 18.3 µM
[5]
  GI50: 0.42 µM
  TGI: > 100 µM
[6]
  GI50: 0.243 µM
  TGI: 5.89 µM
[7]
  GI50: 0.495 µM
  TGI: > 100 µM
[8]
  GI50: 0.0637 µM
  TGI: 0.837 µM
[9]
  GI50: 0.303 µM
  TGI: 8.44 µM
[10]
  GI50: 0.299 µM
  TGI: 20 µM

## O=c1c2ccccc2[nH]c2c(O)ccc(O)c12
[1]
  TGI: > 88.6 µM
[2]
  TGI: > 100 µM
[3]
  TGI: > 84.9 µM
[4]
  TGI: 30.3 µM
[5]
  TGI: > 100 µM
[6]
  TGI: 70.1 µM
[7]
  TGI: 75.3 µM
[8]
  TGI: 35.2 µM
[9]
  TGI: 33.5 µM
[10]
  TGI: > 79.9 µM

## Cc1cc(-c2nnc(/C=C/c3ccc4c(c3)OCO4)o2)n[nH]1
[1]
  GI50: 2.05 µM
  TGI: 19.1 µM
[2]
  GI50: 10.7 µM
  TGI: > 50 µM
[3]
  GI50: 13.8 µM
  TGI: 43.4 µM
[4]
  GI50: 6.32 µM
  TGI: 21.1 µM
[5]
  GI50: 38.5 µM
  TGI: > 50 µM
[6]
  GI50: 2.99 µM
  TGI: 32 µM
[7]
  GI50: 12.5 µM
  TGI: > 50 µM
[8]
  GI50: 24.1 µM
  TGI: > 50 µM
[9]
  GI50: 15.3 µM
  TGI: > 50 µM
[10]
  GI50: 14.7 µM
  TGI: > 50 µM

## C/C(=N\NC(=O)C[N+](C)(C)C)c1sc(-c2cccnc2)nc1C
[1]
  TGI: > 100 µM
[2]
  TGI: > 100 µM
[3]
  TGI: > 100 µM
[4]
  TGI: > 100 µM
[5]
  TGI: > 100 µM
[6]
  TGI: > 100 µM
[7]
  TGI: > 100 µM
[8]
  TGI: > 100 µM
[9]
  TGI: > 100 µM
[10]
  TGI: > 100 µM

## O=[N+]([O-])c1cccc(-c2nc(-c3ccc(Cl)cc3Cl)cn2-c2ccccc2)c1
[1]
  TGI: > 18.7 µM
[2]
  GI50: 2.99 µM
  TGI: > 17.6 µM
[3]
  GI50: 1.25 µM
  TGI: 5.42 µM
[4]
  GI50: 1.45 µM
  TGI: > 14.9 µM
[5]
  GI50: 3.54 µM
  TGI: 24.6 µM
[6]
  GI50: 0.00546 µM
  TGI: 1.79 µM
[7]
  GI50: 1.02 µM
  TGI: 4.33 µM
[8]
  GI50: 6.76 µM
  TGI: 24.2 µM
[9]
  GI50: 6.73 µM
  TGI: > 33.3 µM
[10]
  GI50: 1.19 µM
  TGI: 7.29 µM

## CCOC(=O)Nc1nc2ccccc2[nH]1
[1]
  GI50: 3.6 µM and 4.41 µM
  TGI: > 100 µM
[2]
  GI50: 19.8 µM and 95.3 µM
  TGI: > 100 µM
[3]
  GI50: 3.96 µM and 3.99 µM
  TGI: > 100 µM
[4]
  GI50: 3.48 µM and 3.43 µM
  TGI: > 100 µM
[5]
  GI50: 15.8 µM and > 26.1 µM
  TGI: > 100 µM
[6]
  GI50: 4.13 µM and 2.26 µM
  TGI: > 100 µM
[7]
  GI50: 2.63 µM and 2.92 µM
  TGI: 9.69 µM and > 32.1 µM
[8]
  GI50: 8.43 µM
  TGI: > 100 µM
[9]
  GI50: 5.38 µM and 4.46 µM
  TGI: > 100 µM
[10]
  GI50: 5.8 µM and 5.34 µM
  TGI: > 100 µM

## S=c1o[nH]c(-c2ccccc2)c1C=Nc1ccccc1
[1]
  TGI: > 100 µM
[2]
  TGI: > 100 µM
[3]
  TGI: > 100 µM
[4]
  TGI: > 100 µM
[5]
  TGI: > 100 µM
[6]
  TGI: > 100 µM
[7]
  TGI: > 100 µM
[8]
  TGI: > 100 µM
[9]
  TGI: > 100 µM
[10]
  TGI: > 100 µM

## CCC1C(C)C=NN1c1nc(N)nc(C(C#N)=Nc2ccc(N(C)C)cc2)n1 (centres undefined)
[1]
  GI50: 6.11 µM
  TGI: 20.4 µM
[2]
  GI50: 9.93 µM
  TGI: 19.6 µM
[3]
  GI50: 16.5 µM
  TGI: > 50 µM
[4]
  GI50: 9.11 µM
  TGI: 16.5 µM
[5]
  GI50: 10.2 µM
  TGI: 26.6 µM
[6]
  GI50: 2.55 µM
  TGI: > 50 µM
[7]
  GI50: 1.03 µM
  TGI: 5.97 µM
[8]
  GI50: 8.61 µM
  TGI: 18.4 µM
[9]
  GI50: 14.6 µM
  TGI: > 50 µM
[10]
  GI50: 15.1 µM
  TGI: > 50 µM

## CCO/S(=N/S(=O)(=O)c1ccccc1)c1ccccc1[N+](=O)[O-] (centres undefined)
[1]
  TGI: > 100 µM
[2]
  TGI: > 100 µM
[3]
  TGI: > 100 µM
[4]
  TGI: > 100 µM
[5]
  TGI: > 100 µM
[6]
  TGI: > 100 µM
[7]
  TGI: > 100 µM
[8]
  TGI: > 100 µM
[9]
  TGI: > 100 µM
[10]
  TGI: > 100 µM

## Cc1cc(C(=O)/C=C/c2ccc[nH]2)ccc1-n1ccc(C(F)(F)F)n1
[1]
  GI50: 2.55 µM
  TGI: > 100 µM
[2]
  GI50: 20.1 µM
  TGI: > 100 µM
[3]
  GI50: 14.4 µM
  TGI: > 100 µM
[4]
  GI50: 30.7 µM
  TGI: > 100 µM
[5]
  GI50: > 100 µM
  TGI: > 100 µM
[6]
  GI50: 0.592 µM
  TGI: 3.33 µM
[7]
  GI50: 2.69 µM
  TGI: 9.13 µM
[8]
  GI50: 41.8 µM
  TGI: > 100 µM
[9]
  GI50: 21.4 µM
  TGI: > 100 µM
[10]
  GI50: 1.4 µM
  TGI: 2.72 µM
